The values below come from patent US12275688B2, “Crystalline solids of MEK inhibitor N-((R)-2,3-dihydroxypropoxy)-3,4-difluoro-2-(2-fluoro-4-iodo-phenylamino)-benzamide and uses thereof” (SpringWorks Therapeutics, Inc., priority 2021, dated 2025).

Assay type in all cases: physicochemical
Data set [1] is described as follows: Solid-state stability of crystal forms at ambient conditions. The source says: The following sections describe and summarize the physical properties of each of the crystal forms observed for mirdametinib.
A short description of data set [2]: Physical stability of amorphous mirdametinib on storage (PXRD, PLM). How it is done: Solutions of mirdametinib (100 mg/mL) were prepared in methanol and THF, and each solution was divided into three equal parts to be used for 1) open at RT stability evaluation, 2) closed at RT stability evaluation, and 3) closed at −20° C. stability evaluation.
PXRD analyses of all six samples (three from both methanol and THF) following rapid evaporation indicated an amorphous state. Other analyses (e.g. PLM, TGA-IR, DSC) were performed on one sample from each solvent. Following initial analyses, one sample from each solvent was stored at RT in an open vial, at RT in a capped vial, and at −20° C. in a capped vial.

Data set [3] can be described thus: Approximate kinetic solubility (visual, solvent aliquot addition). Conditions: thermodynamic from solid; for solubility: read-out: Solubility (mg/mL)at RT (23° C.); for solubility at 1 h: heated to 40° C. for 1 hour, read-out: Solubility (mg/mL) at 40° C. How it is done: Solubility of mirdametinib prepared by Example 3 was assessed in 30 solvents. The solubility was visually estimated at room temperature (RT; ˜23° C.) by dosing small aliquots of solvent into a fixed amount of solid (˜10 mg) until the dissolution point or a maximum volume (1.8 mL) was reached. Samples that contained undissolved solids at RT were heated to 40° C. for 1 hour and the dissolution was assessed visually. The solubility data are shown below in Table 1.

Structures are written as SMILES. Values after ≈ are worked out from the molar mass of the structure shown. “Also recorded” adds a separate entry of the source. Like-named read-outs stand apart in the source and are kept apart here.

Turning to `O=C(NOC[C@H](O)CO)c1ccc(F)c(F)c1Nc1ccc(I)cc1F` [Form XXI, N—((R)-2,3-dihydroxypropoxy)-3,4-difluoro-2-(2-fluoro-4-iodo-phenylamino)-benzamide], in data set [1], the “Conversion noted under Nature of Solvate (Table 2)” value was “(converts to Form IV)”.
As for `O=C(NOC[C@H](O)CO)c1ccc(F)c(F)c1Nc1ccc(I)cc1F` [Form XIV, N—((R)-2,3-dihydroxypropoxy)-3,4-difluoro-2-(2-fluoro-4-iodo-phenylamino)-benzamide], the “Conversion at ambient conditions (in words)” value in data set [1] (ambient conditions) is “convert to Form IV within four days”.
With `O=C(NOC[C@H](O)CO)c1ccc(F)c(F)c1Nc1ccc(I)cc1F` [Form A-2a], the “Solid state by PXRD and PLM after one day” value (“Solid state by PXRD and PLM” for short) in data set [2] (open vial at RT) is on record as “crystallization to Form IV”.
With `O=C(NOC[C@H](O)CO)c1ccc(F)c(F)c1Nc1ccc(I)cc1F` [mirdametinib, N—((R)-2,3-dihydroxypropoxy)-3,4-difluoro-2-(2-fluoro-4-iodo-phenylamino)-benzamide], the solubility in data set [3] (1-propanol, 23 °C, organic solvent or mixture) is 101 to 202 mg/mL (≈ 209 to 419 mM); in data set [3] (2-methyl-2-butanol, 23 °C, organic solvent or mixture), 97 to 194 mg/mL (≈ 201 to 402 mM); in data set [3] (2-propanol (IPA), 23 °C, organic solvent or mixture) it was 98 to 196 mg/mL (≈ 203 to 406 mM); in data set [3] (23 °C, organic solvent or mixture, 2-Propanol: water (9:1 v/v)), more than 400 mg/mL; in data set [3] (DMF (dimethylformamide), 23 °C, organic solvent or mixture), more than 408 mg/mL; in data set [3] (Dioxane, 23 °C, organic solvent or mixture), more than 408 mg/mL. In addition, the solubility in data set [3] (Ethanol/Water (9:1 v/v), 23 °C, organic solvent or mixture) is more than 424 mg/mL; in data set [3] (MIBK (4-methyl-2-pentanone), 23 °C, organic solvent or mixture), 48 to 95 mg/mL (≈ 99.5 to 197 mM); in data set [3] (MTBE (methyl-t-butylether), 23 °C, organic solvent or mixture) it was less than 6 mg/mL; in data set [3] (MeCN/Water (7:3 v/v), 23 °C, organic solvent or mixture) it was more than 408 mg/mL; in data set [3] (MeCN/water (8:2 v/v), 23 °C, organic solvent or mixture), more than 412 mg/mL; in data set [3] (acetic acid (HOAc), 23 °C, organic solvent or mixture) it was more than 388 mg/mL. The solubility in data set [3] (acetone, 23 °C, organic solvent or mixture) is more than 400 mg/mL; in data set [3] (acetonitrile (MeCN), 23 °C, organic solvent or mixture), 19 to 49 mg/mL (≈ 39.4 to 102 mM); in data set [3] (chloroform, 23 °C, organic solvent or mixture), less than 6 mg/mL; in data set [3] (cyclohexane, 23 °C, organic solvent or mixture), less than 6 mg/mL; in data set [3] (dichloromethane (DCM), 23 °C, organic solvent or mixture) it was less than 6 mg/mL; in data set [3] (dimethyl sulfoxide (DMSO), 23 °C, organic solvent or mixture), more than 388 mg/mL. Also, the solubility in data set [3] (dimethylcarbonate (DMC), 23 °C, organic solvent or mixture) was 10 to 19 mg/mL (≈ 20.7 to 39.4 mM); in data set [3] (ethanol, 23 °C, organic solvent or mixture), 208 to 416 mg/mL (≈ 431 to 863 mM); in data set [3] (ethanol/toluene (9:1), 23 °C, organic solvent or mixture) it was 210 to 420 mg/mL (≈ 436 to 871 mM); in data set [3] (ethyl acetate (EtOAc), 23 °C, organic solvent or mixture) it was 48 to 95 mg/mL (≈ 99.5 to 197 mM); in data set [3] (isopropyl ether (IPE), 23 °C, organic solvent or mixture), less than 6 mg/mL; in data set [3] (methanol (MeOH), 23 °C, organic solvent or mixture) it was more than 380 mg/mL. Besides, the solubility in data set [3] (nitromethane, 23 °C, organic solvent or mixture) was 10 to 20 mg/mL (≈ 20.7 to 41.5 mM); in data set [3] (organic solvent or mixture, Tert-butanol (t-BuOH), solubility determined at 30° C. (footnote)), 6 to 10 mg/mL (≈ 12.4 to 20.7 mM); in data set [3] (tetrahydrofuran (THF), 23 °C, organic solvent or mixture) it was more than 396 mg/mL; in data set [3] (toluene, 23 °C, organic solvent or mixture), less than 6 mg/mL; in data set [3] (trifluoroethanol (TFE), 23 °C, organic solvent or mixture), 7 to 12 mg/mL (≈ 14.5 to 24.9 mM); in data set [3] (water, 23 °C, water) it was less than 6 mg/mL. Besides, the solubility at 1 h in data set [3] (organic solvent or mixture, Chloroform) is less than 6 mg/mL; in data set [3] (organic solvent or mixture, Cyclohexane) it was less than 6 mg/mL; in data set [3] (organic solvent or mixture, Dichloromethane (DCM)), more than 6 mg/mL; in data set [3] (organic solvent or mixture, Isopropyl ether (IPE)) it was less than 6 mg/mL; in data set [3] (organic solvent or mixture, MTBE (methyl-t-butylether)), more than 6 mg/mL; in data set [3] (organic solvent or mixture, Toluene), less than 6 mg/mL. The solubility at 1 h in data set [3] (Water) was less than 6 mg/mL.
Regarding `O=C(NOC[C@H](O)CO)c1ccc(F)c(F)c1Nc1ccc(I)cc1F` [Amorphous mirdametinib, N—((R)-2,3-dihydroxypropoxy)-3,4-difluoro-2-(2-fluoro-4-iodo-phenylamino)-benzamide], the “Physically stable for” value in data set [2] (open and closed vials at RT) is “at least 24 hours”.
On to `O=C(NOC[C@H](O)CO)c1ccc(F)c(F)c1Nc1ccc(I)cc1F` [Form IX, N—((R)-2,3-dihydroxypropoxy)-3,4-difluoro-2-(2-fluoro-4-iodo-phenylamino)-benzamide], for which, in data set [1] (ambient conditions), the “Conversion at ambient conditions (in words)” value is given as “significant conversion toward Form IV after 20 hours; also recorded: slowly convert to Form IV”.
With `O=C(NOC[C@H](O)CO)c1ccc(F)c(F)c1Nc1ccc(I)cc1F` [Form XX, N—((R)-2,3-dihydroxypropoxy)-3,4-difluoro-2-(2-fluoro-4-iodo-phenylamino)-benzamide], the “Time to convert to Form IV at ambient conditions” value in data set [1] (ambient conditions) is listed as not above 10 days.
As to `O=C(NOC[C@H](O)CO)c1ccc(F)c(F)c1Nc1ccc(I)cc1F` [Form A-1], in data set [2] (after 1 day at ambient), the “Results (solid form after 1 day at ambient)” value was “Amorphous”.
As for `O=C(NOC[C@H](O)CO)c1ccc(F)c(F)c1Nc1ccc(I)cc1F` [Form A-1a], in data set [2] (open vial at RT), the “Solid state by PXRD and PLM” value is reported as “no crystallization”.
In the case of `O=C(NOC[C@H](O)CO)c1ccc(F)c(F)c1Nc1ccc(I)cc1F` [Form VIII, N—((R)-2,3-dihydroxypropoxy)-3,4-difluoro-2-(2-fluoro-4-iodo-phenylamino)-benzamide], the “Stable at ambient conditions for” value in data set [1] (ambient conditions) is recorded as not below 2 days.
For the compound `O=C(NOC[C@H](O)CO)c1ccc(F)c(F)c1Nc1ccc(I)cc1F` [Form A-1b], in data set [2] (capped vial at RT), the “Solid state by PXRD and PLM” value was “no crystallization”.
